Laboratory results reported in patent US10316039B2, “P2X3 and/or P2X2/3 compounds and methods” (Asana Biosciences, LLC, priority 2013, dated 2019).
pIC50: −log10 of the molar value.

Experiments:
[1] = biological target: T1, P2X2/3 (Homo sapiens, UniProt P56373+Q9UBL9); experiment: P2X2/3 FLIPR intracellular calcium assay; assay type: cell-based; settings: agonist at EC75, species (human or rat) not given
T1 sequence (Q9UBL9 1-471): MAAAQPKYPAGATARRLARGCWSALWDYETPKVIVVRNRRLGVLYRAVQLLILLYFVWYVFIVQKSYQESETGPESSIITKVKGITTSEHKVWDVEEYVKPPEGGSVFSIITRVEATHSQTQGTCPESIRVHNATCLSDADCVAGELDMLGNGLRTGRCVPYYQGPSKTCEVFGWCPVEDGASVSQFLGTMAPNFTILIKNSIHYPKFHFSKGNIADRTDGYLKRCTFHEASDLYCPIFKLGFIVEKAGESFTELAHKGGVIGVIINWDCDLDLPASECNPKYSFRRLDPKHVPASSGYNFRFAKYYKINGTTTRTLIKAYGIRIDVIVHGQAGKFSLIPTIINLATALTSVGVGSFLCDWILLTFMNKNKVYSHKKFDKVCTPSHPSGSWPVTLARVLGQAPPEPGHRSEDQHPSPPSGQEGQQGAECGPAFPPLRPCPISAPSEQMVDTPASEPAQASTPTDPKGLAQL
T1 sequence (P56373 1-397): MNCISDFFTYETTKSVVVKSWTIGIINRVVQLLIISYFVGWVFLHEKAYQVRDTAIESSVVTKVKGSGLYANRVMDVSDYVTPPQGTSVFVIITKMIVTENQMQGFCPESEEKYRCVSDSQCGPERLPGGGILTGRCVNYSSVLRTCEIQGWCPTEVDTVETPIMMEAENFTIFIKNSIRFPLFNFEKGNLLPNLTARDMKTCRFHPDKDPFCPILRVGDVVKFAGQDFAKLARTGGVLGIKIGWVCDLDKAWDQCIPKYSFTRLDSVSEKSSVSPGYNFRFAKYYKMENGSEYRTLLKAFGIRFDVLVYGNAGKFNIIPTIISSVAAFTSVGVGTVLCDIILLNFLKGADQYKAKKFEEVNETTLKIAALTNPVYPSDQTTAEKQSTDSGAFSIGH
Description: The FLIPR® assay utilizes cells which express human or rat P2X3 or P2X2/3 receptors. Recombinant cells expressing hP2X3 (Cat#6188) and hP2X2/3 (Cat#6179) were procured from Chantest Corp. Rat P2X2 (NCBI Accession No: U14414) was amplified by PCR from PC12 cDNA (a rat adrenal medulla cell line). The PCR product obtained containing the protein coding sequence of rat P2X2 was cloned into EcoRV-digested and dephosphorylated vector pIRES-puro3 within the multiple cloning site (MCS). See, FIG. 1A.
(§1) Transfection was carried out using super-coiled constructs (purified using QIAGEN kit) in antibiotic free, serum free DMEM using Lipofectamine® 2000 (Invitrogen) transfection agent. The DNA constructs rat P2X2 in pIRES-Puro3 and rat P2X3 in pCDNA5/TO were co-transfected into TRex293 cells in order to generate the rP2X2/3 stable line. 50 μg/mL hygromycin (Invitrogen) and 0.5 μg/mL puromycin (Fermentek) were used for selection of stable clones of rP2X2/3. Rat P2X3 in pCDNA5/TO DNA construct was transfected to CHO-TRex cells to generate the rP2×3 stable line and 500 μg/mL hygromycin (Invitrogen) was used as selection antibiotic. Transfected stable colonies were then functionally verified and robust clones suitable for assay were clonally purified through dilutions.
(§2) Cryo-vial containing 6×10^6 cells (human P2X3-HEK/human P2X2/3-TRex293/rat P2X2/3-TRex293/rat P2X3 TRex-CHO) was thawed in a 37° C. water bath. Cells were suspended in 20 mL of respective cell plating media (See annexure for composition) in a 50 mL centrifuge tube. The cell viability was checked with the help of Trypan Blue dye. Upon washing, cells were plated in a black 384-well clear bottomed, sterile poly-D-lysine coated plate such that, each well contained 10,000 cells (15,000/well for hP2X3) in 30 μL cell plating media. The plate was incubated in a 5% CO2 incubator at 37° C. for 24 h.
(§3) The next day, prior to the assay, the cell plating media was removed from each well by decanting and gentle tapping. Thirty μL of FLIPR Calcium 4 dye solution was added to each well. The plate was incubated at 37° C. for 45 min (60 min for hP2X3). The plate was next equilibrated at room temperature for 15 minutes before placing it in a 384 well FLIPR for the assay.
Compounds were dissolved in DMSO and serially diluted following 11 point half log (3.16 fold) dilution with a starting concentration of 2 mM. Dilutions were mixed with assay buffer just before performing the assay.
(§4) Compounds were added to the respective wells of the assay-ready cell plate with the help of the FLIPR and fluorescence readings were captured for 5 min to observe any possible agonistic property of the compounds. The plate was then incubated at room temperature for 15 min. The cells were stimulated with respective agonist EC75 concentration and the fluorescence readings were captured for another 5 min by FLIPR. The difference in fluorescence readings in presence of the compounds were compared with that of the control wells (wells having no compound) to calculate the inhibitory potency of the compounds. The IC50 values of the compounds were determined using the Graph pad Prism software.
(ii) Cell Plating Media for hP2X3-HEK and hP2X2/3-TRex293 Cells • DMEM/F12 (1:1) HAM media (Invitrogen; Cat#11039) • 1×NEAA (Invitrogen; Cat#11140) • 25 mM HEPES (Invitrogen; Cat#15630) • 1 mM sodium pyruvate (Invitrogen; Cat#11360) • 10% tetracycline negative FBS (PAA; Cat# A15-209) • 1 μg/mL doxycycline (Clontech; Cat#63131) [for hP2X2/3-TRex293 cells only]
(iii) Cell Plating Media for rP2X2/3-TRex293 Cells • DMEM media (Invitrogen; Cat#11965) • 25 mM HEPES (Invitrogen; Cat#15630) • 10% tetracycline negative FBS (PAA; Cat# A15-209) • 1 μg/mL Doxycycline (Clontech; Cat#63131)
(v) Assay Buffer Composition • HBSS (Invitrogen Cat#14025) • 20 mM HEPES (Invitrogen Cat#15630) • 0.01% F127 (Sigma Cat# P2443) • 1.8 mM CaCl2 (Sigma Cat# C5080) • pH adjusted to 7.4 […]

[2] = biological target: T2, P2X3 (UniProt P56373); experiment: P2X3 FLIPR intracellular calcium assay; assay type: cell-based; settings: agonist at EC75, species (human or rat) not given
T2 sequence (P56373 1-397): T1 sequence (P56373 1-397)
Description: The FLIPR® assay utilizes cells which express human or rat P2X3 or P2X2/3 receptors. […] The PCR product obtained containing the protein coding sequence of rat P2X2 was cloned into EcoRV-digested and dephosphorylated vector pIRES-puro3 within the multiple cloning site (MCS). See, FIG. 1A.
Rat P2X3 (NCBI Accession No: X91167) was amplified by PCR from rat brain cDNA. The PCR product obtained containing the protein coding sequence of rat P2X3 was cloned into EcoRV-digested and dephosphorylated vector pCDNA-Hygro within the multiple cloning site (MCS) (FIG. 1B). Rat P2X3 cloned into pcDNA-Hygro was then subcloned into pcDNA-5/TO at HindIII (5′) and XhoI (3′) sites within the multiple cloning site (MCS) of the vector (FIG. 1C).
as §1, §2, §3
Dilutions were mixed with assay buffer just before performing the assay.
as §4
(vi) Dye Solution Composition • 1×FLIPR Calcium 4 dye in assay buffer (Molecular devices Cat# R8141) • 1.8 mM Probenecid (Sigma Cat# P8761) • pH adjusted to 7.4

| pIC50 [1] | pIC50 [2] | Compound |
| --- | --- | --- |
| 5.00 to 6.00 | 6.00 to 7.00 | Cc1ccc(-c2cnc3c(Nc4nccs4)cc(C(=O)N[C@@H](C)c4nnc[nH]4)cn23)s1 [Example 92] |
| 7.00 to 9.00 | 7.00 to 9.00 | Cc1ccc(CNC(=O)c2cc(-n3nncc3C3CC3)c3ncc(-c4ccc(C)s4)n3c2)cn1 [Example 25] |
| 7.00 to 9.00 | 7.00 to 9.00 | Cc1ncc([C@@H](C)NC(=O)c2cc(-n3nncc3C(F)F)c3ncc(-c4ncc(C)s4)n3c2)cn1 [Example 84] |
| 7.00 to 9.00 | 7.00 to 9.00 | Cc1cnc(CNC(=O)c2cc(-n3nncc3C(F)F)c3ncc(-c4ccc(C)o4)n3c2)cn1 [Example 78] |
| 6.00 to 7.00 | < 5.00 | Cc1ccc(CNC(=O)c2cc(N3CCN(C(N)=O)CC3)c3ncc(-c4ccc(C)s4)n3c2)cn1 [Example 13, 8-(4-Carbamoylpiperazin-1-yl)-N-((6-methylpyridin-3-yl)methyl)-3-(5-methylthiophen-2-yl)imidazo[1,2-a]pyridine-6-carboxamide] |
| 6.00 to 7.00 | 5.00 to 6.00 | Cc1ccc(-c2cnc3c(N4CCC(F)(F)CC4)cc(C(=O)N[C@H](c4nnc[nH]4)C(C)C)cn23)s1 [Example 145] |
| 7.00 to 9.00 | < 5.00 | CCc1cnnn1-c1cc(C(=O)N[C@H](C)c2nc(C)no2)cn2c(-c3ccc(C)s3)cnc12 [Example 88] |
| 7.00 to 9.00 | 7.00 to 9.00 | Cc1ccc(CNC(=O)c2cc(-n3nncc3C(F)(F)F)c3ncc(-c4ccc(C)s4)n3c2)cn1 [Example 30] |
| 7.00 to 9.00 | 7.00 to 9.00 | CC[C@H](NC(=O)c1cc(-c2c(C)noc2C)c2ncc(-c3ccc(C)s3)n2c1)c1nnc[nH]1 [Example 108] |
| 7.00 to 9.00 | 7.00 to 9.00 | CC[C@H](NC(=O)c1cc(-n2nncc2C(C)C)c2ncc(-c3ccc(C)s3)n2c1)c1nnc[nH]1 [Example 61] |
| 5.00 to 6.00 | 6.00 to 7.00 | Cc1cnc(CNC(=O)c2cc(-n3nnnc3C(F)F)c3ncc(-c4ncc(C)s4)n3c2)cn1 [Example 185] |
| 6.00 to 7.00 | 7.00 to 9.00 | CCc1cnnn1-c1cc(C(=O)N[C@@H](C)c2nnc[nH]2)cn2c(-c3ccc(C)o3)cnc12 [Example 62] |
| 6.00 to 7.00 | 6.00 to 7.00 | Cc1ncc(CNC(=O)c2cc(-n3nnnc3C(F)F)c3ncc(-c4ccc(Cl)s4)n3c2)cn1 [Example 176] |
| 7.00 to 9.00 | 7.00 to 9.00 | C[C@H](NC(=O)c1cc(-n2nnnc2C(C)(F)F)c2ncc(-c3ccc(Cl)s3)n2c1)c1nnc[nH]1 [Example 184] |
| 6.00 to 7.00 | 7.00 to 9.00 | COC1(C)CCN(c2cc(C(=O)N[C@@H](C)c3nnc[nH]3)cn3c(-c4ccc(C)s4)cnc23)CC1 [Example 139] |
|  | 5.00 to 6.00 | Cc1ccc(-c2cnc3c(N4CCC(F)(F)CC4)cc(C(=O)N[C@@H](C)c4cc[nH]n4)cn23)s1 [Example 143] |
| 7.00 to 9.00 | 7.00 to 9.00 | Cc1ncc(CNC(=O)c2cc(-n3nncc3C(F)(F)F)c3ncc(-c4ccc(C)s4)n3c2)cn1 [Example 39] |
| 7.00 to 9.00 | < 5.00 | Cc1ncc(CNC(=O)c2cc(-c3c(C)n[nH]c3C)c3ncc(-c4ccc(C)s4)n3c2)cn1 [Example 111] |
| 7.00 to 9.00 | 7.00 to 9.00 | Cc1ccc(-c2cnc3c(-n4nncc4C(F)F)cc(C(=O)N[C@H](c4nnc[nH]4)C(C)C)cn23)s1 [Example 54] |
| 6.00 to 7.00 | 7.00 to 9.00 | Cc1ccccc1-c1cnc2c(N3CCC(C)CC3)cc(C(=O)NCc3ccc(C)[n+]([O-])c3)cn12 [Example 150] |
| 7.00 to 9.00 | 7.00 to 9.00 | Cc1ncc(CNC(=O)c2cc(-n3nncc3C(F)F)c3ncc(-c4ccc(C)o4)n3c2)cn1 [Example 65] |
|  | < 5.00 | COc1ccc(CNC(=O)c2cc(-n3nnnc3C3CCC3)c3ncc(-c4ccc(C)s4)n3c2)cc1 [Example 163] |

| Compound | pIC50 [1] | pIC50 [2] |
| --- | --- | --- |
| Cc1ccc(CNC(=O)c2cc(-n3nncc3C(F)F)c3ncc(-c4ccc(C)s4)n3c2)cn1 [Example 27] |  | 7.00 to 9.00 |
